The half-life is how long it takes for the measured level to halve. The solubility is the dissolved amount per volume that the medium holds.

We go through 25 molecules from ChEMBL document CHEMBL5375992, “Design and Development of IKZF2 and CK1α Dual Degraders” (J Med Chem, 2023).

Data set [1] has as its target T1, Protein cereblon/Zinc finger protein Helios (Homo sapiens) (UniProt Q96SW2+Q9UKS7). The experiment in a line: Protac activity at CRBN/IKZF2 (unknown origin) transfected in HEK293T cells at 100 nM incubated for 24 hrs by flow cytometry analysis relative to control. The data set is classed as cell-based.
Data set [2] addresses Cereblon/Casein kinase I alpha (Homo sapiens) (UniProt P48729+Q96SW2). The experiment in a line: Protac activity at CRBN/CK1alpha (unknown origin) transfected in HEK293T cells at 100 nM incubated for 24 hrs by flow cytometry analysis relative to control. The data set is classed as cell-based. A general note: Flow cytometry measures light scatter and fluorescence of single cells or particles in a stream.

Data set [3] can be described thus: Metabolic stability in mouse liver microsomes assessed as half life preincubated with NADPH and UDPGA for 5 mins followed by compound addition and measured upto 60 mins by LC-MS/MS analysis. The data set is classed as ADME, Microsome. In general terms: Liver microsomes are a subcellular fraction often used to study metabolism.
The nature of data set [4]: Metabolic stability in human liver microsomes assessed as half life preincubated with NADPH and UDPGA for 5 mins followed by compound addition and measured upto 60 mins by LC-MS/MS analysis. The data set is classed as ADME, Microsome.
Data set [5] can be described thus: Metabolic stability in mouse liver microsomes assessed as intrinsic clearance preincubated with NADPH and UDPGA for 5 mins followed by compound addition and measured upto 60 mins by LC-MS/MS analysis. The data set is classed as ADME, Microsome. The note with it: read-out: CLH.
Data set [6] in a line: Metabolic stability in human liver microsomes assessed as intrinsic clearance preincubated with NADPH and UDPGA for 5 mins followed by compound addition and measured upto 60 mins by LC-MS/MS analysis. The data set is classed as ADME, Microsome. The settings on record: read-out: CLH.
The next data set has as its system A2780. The experiment in a line: Cytotoxicity against human A2780 cells incubated for 5 days by MTT assay. The data set is classed as functional, cell-based. The note with it: time 5.0 day. (Tetrazolium dyes change colour on reduction, which living cells bring about.)
The next data set concerns OCI-Ly3. Briefly: Cytotoxicity against human OCILY3 cells incubated for 5 days by MTT assay. The data set is classed as functional, cell-based. The settings on record: time 5.0 day.
The target in data set [7] is T2, Cereblon/Ikaros (Homo sapiens) (UniProt Q96SW2+Q13422). Briefly: Protac activity at CRBN/IKZF1 (unknown origin) transfected in HEK293T cells at 100 nM incubated for 24 hrs by flow cytometry analysis relative to control. The data set is classed as cell-based.
Data set [8] has as its target Protein cereblon/Eukaryotic peptide chain release factor GTP-binding subunit ERF3A (Homo sapiens) (UniProt Q96SW2+P15170). The experiment in a line: Protac activity at CRBN/GSPT1 (unknown origin) transfected in HEK293T cells at 100 nM incubated for 24 hrs by flow cytometry analysis relative to control. The data set is classed as cell-based.
A short description of data set [9]: Solubility of compound in DMSO. The data set is classed as physicochemical.
In data set [10] the target is T1, Protein cereblon/Zinc finger protein Helios (Homo sapiens). Briefly: Protac activity at CRBN/IKZF2 in human MOLM-13 cells at 25 uM incubated for 24 hrs by Western blotting analysis relative to control. The data set is classed as cell-based.
The target of data set [11] is T2, Cereblon/Ikaros (Homo sapiens). Briefly: Protac activity at CRBN/IKZF1 in human MOLM-13 cells at 25 uM incubated for 24 hrs by Western blotting analysis relative to control. The data set is classed as cell-based.
The target in data set [12] is T1, Protein cereblon/Zinc finger protein Helios (Homo sapiens). The experiment in a line: Protac activity at CRBN/IKZF2 in human MOLM-13 cells assessed as relative ratio at 25 uM incubated for 24 hrs by Western blotting analysis relative to DMSO. The data set is classed as cell-based.
In data set [13] the target is T2, Cereblon/Ikaros (Homo sapiens). The experiment in a line: Protac activity at CRBN/IKZF1 in human MOLM-13 cells assessed as relative ratio at 25 uM incubated for 24 hrs by Western blotting analysis relative to DMSO. The data set is classed as cell-based.

≈ marks a conversion by molar mass, not a printed value. Calls of active or inactive are those of the source. The rule behind the calls is not given here. Bounds are passed on as bounds.

Sequence of Protein cereblon/Eukaryotic peptide chain release factor GTP-binding subunit ERF3A (Homo sapiens) (P15170 whole entry, looked up): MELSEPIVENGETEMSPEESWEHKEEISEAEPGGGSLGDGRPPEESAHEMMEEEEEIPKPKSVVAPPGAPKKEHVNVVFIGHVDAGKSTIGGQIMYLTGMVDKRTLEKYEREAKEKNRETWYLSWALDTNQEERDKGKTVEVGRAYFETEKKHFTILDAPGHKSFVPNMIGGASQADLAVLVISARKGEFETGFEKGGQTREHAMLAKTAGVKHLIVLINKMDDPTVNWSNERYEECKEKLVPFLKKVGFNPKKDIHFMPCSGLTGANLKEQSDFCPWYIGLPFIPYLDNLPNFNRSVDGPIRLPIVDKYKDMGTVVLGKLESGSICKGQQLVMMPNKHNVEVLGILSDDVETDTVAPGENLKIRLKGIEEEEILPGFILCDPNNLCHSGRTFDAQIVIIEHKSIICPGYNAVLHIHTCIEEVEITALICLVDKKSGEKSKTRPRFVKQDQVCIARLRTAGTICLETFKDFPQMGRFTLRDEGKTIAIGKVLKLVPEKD
Sequence of Protein cereblon/Eukaryotic peptide chain release factor GTP-binding subunit ERF3A (Homo sapiens) (Q96SW2 whole entry, looked up): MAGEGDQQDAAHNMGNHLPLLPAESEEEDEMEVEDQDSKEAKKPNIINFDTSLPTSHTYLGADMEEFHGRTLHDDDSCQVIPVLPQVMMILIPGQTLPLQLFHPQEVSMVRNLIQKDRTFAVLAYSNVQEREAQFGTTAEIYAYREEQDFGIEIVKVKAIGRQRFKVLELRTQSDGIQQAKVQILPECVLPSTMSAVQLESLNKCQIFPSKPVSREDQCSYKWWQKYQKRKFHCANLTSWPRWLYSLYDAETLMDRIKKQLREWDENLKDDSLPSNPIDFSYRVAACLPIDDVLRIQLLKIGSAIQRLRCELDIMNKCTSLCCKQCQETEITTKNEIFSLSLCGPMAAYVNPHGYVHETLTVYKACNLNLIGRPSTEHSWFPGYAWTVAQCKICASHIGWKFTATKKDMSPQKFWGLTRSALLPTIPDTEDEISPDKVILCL
T1 sequence (Q96SW2 whole entry, looked up): as above
T1 sequence (Q9UKS7 whole entry, looked up): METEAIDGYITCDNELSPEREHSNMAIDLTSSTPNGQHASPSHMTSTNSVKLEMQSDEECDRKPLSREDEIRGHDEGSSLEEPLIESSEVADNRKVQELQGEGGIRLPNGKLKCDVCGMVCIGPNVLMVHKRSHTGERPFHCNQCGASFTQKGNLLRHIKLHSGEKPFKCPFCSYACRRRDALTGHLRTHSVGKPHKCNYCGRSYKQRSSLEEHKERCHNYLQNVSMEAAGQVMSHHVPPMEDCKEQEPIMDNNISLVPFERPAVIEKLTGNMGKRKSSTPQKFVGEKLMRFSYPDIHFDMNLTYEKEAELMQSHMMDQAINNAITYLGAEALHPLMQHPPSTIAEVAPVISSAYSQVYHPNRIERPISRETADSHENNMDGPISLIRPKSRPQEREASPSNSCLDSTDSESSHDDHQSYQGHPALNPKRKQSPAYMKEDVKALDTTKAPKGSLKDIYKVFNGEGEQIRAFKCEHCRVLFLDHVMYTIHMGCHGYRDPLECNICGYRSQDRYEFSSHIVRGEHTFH
Sequence of Cereblon/Casein kinase I alpha (Homo sapiens) (P48729 2-337 limits assumed): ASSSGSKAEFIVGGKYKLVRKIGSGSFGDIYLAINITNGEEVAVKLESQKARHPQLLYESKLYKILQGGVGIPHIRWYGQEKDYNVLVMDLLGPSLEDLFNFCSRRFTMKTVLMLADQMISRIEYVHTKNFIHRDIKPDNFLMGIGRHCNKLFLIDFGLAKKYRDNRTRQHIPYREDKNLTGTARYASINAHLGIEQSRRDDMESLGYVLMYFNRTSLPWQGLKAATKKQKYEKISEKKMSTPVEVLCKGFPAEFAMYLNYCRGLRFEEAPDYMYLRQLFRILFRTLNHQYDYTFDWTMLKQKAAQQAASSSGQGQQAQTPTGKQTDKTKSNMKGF
Sequence of Cereblon/Casein kinase I alpha (Homo sapiens) (Q96SW2 whole entry partner): as the sequence (Q96SW2 whole entry, looked up) above

For `CCOc1ccc2cc(C(=O)Nc3ccc4c(c3)CN(C3CCC(=O)NC3=O)C4=O)ccc2c1` (centres undefined), the Activity in data set [1] was determined as 80%; in data set [2] it was 71%. For the same molecule, the half-life in [3] and in data set [4] was greater than 4.25 h throughout. The microsomal CLint in data set [5] and in data set [6] was less than 5.4 µL/min/mg in each case.

As for `COc1cc(C(=O)O)ccc1NC(=O)[C@@H]1N[C@@H](CC(C)(C)C)[C@](C#N)(c2ccc(Cl)cc2F)[C@H]1c1cccc(Cl)c1F`, the result with A2780 and with OCI-Ly3 was inactive.

Consider `O=C1CCC(N2Cc3cc(NC(=O)c4cc5ccccc5o4)ccc3C2=O)C(=O)N1` (centres undefined), for which the Activity was found to be 13% in [7], 80% in [1], 62% in data set [2] and 2% in [8]. The molecule further displayed a solubility in data set [9] of 25 mM (≈ 10.1 mg/mL).

On to `COc1ccc2cc(C(=O)Nc3ccc4c(c3)CN(C3CCC(=O)NC3=O)C4=O)ncc2c1` (centres undefined), for which the Activity in [1] came out at 68%; in [2], 61%. For the same molecule, the half-life in [3] stood at 3.48 h; in [4] it was 0.04 h. The microsomal CLint in [5] came out at 6.6 µL/min/mg; in data set [6], 584 µL/min/mg.

`CCCCOc1ccc2cc(C(=O)Nc3ccc4c(c3)CN(C3CCC(=O)NC3=O)C4=O)ccc2c1` (centres undefined): the Activity in [1] came out at 81%; in data set [2], 70%. Also, the half-life in data set [3] and in data set [4] was greater than 4.25 h each time. Besides, the microsomal CLint in data set [5] and in [6] was less than 5.4 µL/min/mg throughout.

`O=C1CCC(N2Cc3cc(NC(=O)C4=Cc5cc(Br)cc(Br)c5OC4)ccc3C2=O)C(=O)N1` (centres undefined): the Activity turned out to be 12% in data set [7], 49% in data set [1], 47% in data set [2] and 5% in data set [8]. Moreover, the solubility in data set [9] (DMSO, read-out: solubility) came out at 50 mM (≈ 28.8 mg/mL).

For the molecule `COc1cnc2cc(C(=O)Nc3ccc4c(c3)CN(C3CCC(=O)NC3=O)C4=O)ccc2c1` (centres undefined), the Activity in [1] turned out to be 62%; in data set [2] it was 64%. In addition, the half-life in data set [3] was greater than 4.25 h. Besides, in [5], the microsomal CLint was less than 5.4 µL/min/mg.

For `Nc1cccc2c1CN(C1CCC(=O)NC1=O)C2=O` (centres undefined) [LENALIDOMIDE], the half-life in data set [3] and in data set [4] was greater than 6 h each time.

`O=C1CCC(N2Cc3cc(NC(=O)c4ccc5ccccc5c4)ccc3C2=O)C(=O)N1` (centres undefined): the outcome in data set [10] was Active. Moreover, in data set [11], the result was inactive. The half-life in data set [3] and in data set [4] was greater than 4.25 h in each case. Further, the microsomal CLint in data set [5] and in [6] was less than 5.4 µL/min/mg throughout. The values for the Ratio in [12] and in data set [13] were 0.27 and 0.5, respectively.

Take `[2H]C([2H])([2H])Oc1ccc2cc(C(=O)Nc3ccc4c(c3)CN(C3CCC(=O)NC3=O)C4=O)ccc2c1` (centres undefined): the half-life in data set [3] was greater than 4.25 h; in [4], 0.08 h. Besides, the microsomal CLint in data set [5] is less than 5.4 µL/min/mg; in [6], 290 µL/min/mg.

Turning to `COc1cccc2c1C=C(C(=O)Nc1ccc3c(c1)CN(C1CCC(=O)NC1=O)C3=O)CO2` (centres undefined), the Activity in [7] came to 39%; in [1] it was 75%; in data set [2], 59%; in data set [8] it was 24%. The solubility in [9] (DMSO, read-out: solubility) came to 50 mM (≈ 22.4 mg/mL).

In the case of `O=C1CCC(N2Cc3cc(NC(=O)C4=Cc5ccc(C(F)(F)F)cc5OC4)ccc3C2=O)C(=O)N1` (centres undefined), the Activity in data set [7] is 8%; in data set [1] it was 70%; in data set [2], 65%; in [8] it was 3%. For the same molecule, the solubility in data set [9] (DMSO, read-out: solubility) was 50 mM (≈ 24.3 mg/mL).

For `O=C1CCC(N2Cc3cc(NC(=O)C4=Cc5ccc(OC(F)(F)F)cc5OC4)ccc3C2=O)C(=O)N1` (centres undefined), the Activity is 11% in [7], 85% in [1], 66% in [2] and 6% in data set [8]. Further, in [9] (DMSO, read-out: solubility), the solubility stood at 50 mM (≈ 25.1 mg/mL).

Take `COc1ccc2c(c1)OCC(C(=O)Nc1ccc3c(c1)CN(C1CCC(=O)NC1=O)C3=O)=C2` (centres undefined): the Activity in data set [7] was found to be 4%; in [1], 57%; in data set [2], 60%; in data set [8] it was 9%. The solubility in data set [9] (DMSO, read-out: solubility) is 50 mM (≈ 22.4 mg/mL).

Regarding `CC(C)Oc1ccc2cc(C(=O)Nc3ccc4c(c3)CN(C3CCC(=O)NC3=O)C4=O)ccc2c1` (centres undefined), the Activity in data set [1] is 81%; in data set [2], 70%. Besides, the half-life in [3] and in data set [4] was greater than 4.25 h in each case. For the same molecule, the microsomal CLint in [5] and in [6] was less than 5.4 µL/min/mg in each case.

As to `O=C1CCC(N2Cc3cc(NC(=O)C4=Cc5ccc(Br)cc5OC4)ccc3C2=O)C(=O)N1` (centres undefined), the Activity was 13% in [7], 80% in data set [1], 62% in [2] and 22% in data set [8]. For the same molecule, the solubility in data set [9] (DMSO, read-out: solubility) was found to be 50 mM (≈ 24.8 mg/mL).

Turning to `COc1ccc2cc(CNc3ccc4c(c3)CN(C3CCC(=O)NC3=O)C4=O)ccc2c1` (centres undefined), the outcome in [10] and in [11] was Active. The Ratio in [12] is 0.43; in data set [13] it was 0.64.

Regarding `O=C1CCC(N2Cc3cc(NCc4cccc5c4oc4ccccc45)ccc3C2=O)C(=O)N1` (centres undefined), the outcome in data set [10] and in [11] was Active. For the same molecule, the Ratio in data set [12] is 0.84; in data set [13] it was 0.32.

Regarding `Cc1ccc2c(c1)OCC(C(=O)Nc1ccc3c(c1)CN(C1CCC(=O)NC1=O)C3=O)=C2` (centres undefined), the Activity in [7] is 9%; in [1], 73%; in data set [2], 64%; in [8], 14%. The solubility in data set [9] (DMSO, read-out: solubility) turned out to be 50 mM (≈ 21.6 mg/mL).

As for `COc1ccc2nc(C(=O)Nc3ccc4c(c3)CN(C3CCC(=O)NC3=O)C4=O)ccc2c1` (centres undefined), the Activity in [1] amounted to 87%; in [2], 69%. Besides, the half-life in [3] was 0.398 h; in [4], 0.265 h. Also, the values for the microsomal CLint in data set [5] and in data set [6] were 57.9 µL/min/mg and 87.4 µL/min/mg, respectively.

As for `O=C1CCC(N2C(=O)c3ccc(NCc4ccc5ccccc5c4)cc3C2=O)C(=O)N1` (centres undefined), the result in [10] was Active. In addition, in data set [11], the result was inactive. In addition, the values for the Ratio in data set [12] and in [13] were 1.45 and 0.09, respectively.

Turning to `COc1cc(Br)cc2c1OCC(C(=O)Nc1ccc3c(c1)CN(C1CCC(=O)NC1=O)C3=O)=C2` (centres undefined), the Activity turned out to be 13% in data set [7], 74% in data set [1], 65% in [2] and 2% in data set [8]. Besides, the solubility in data set [9] (DMSO, read-out: solubility) was 50 mM (≈ 26.3 mg/mL).

Take `COc1ccc2cc(C(=O)Nc3ccc4c(c3)CN(C3CCC(=O)NC3=O)C4=O)cnc2c1` (centres undefined): the Activity in [1] was 73%; in data set [2], 62%. The half-life in [3] was greater than 4.25 h; in [4], 0.338 h. Further, the microsomal CLint in data set [5] is less than 5.4 µL/min/mg; in [6] it was 68.4 µL/min/mg.

As for `COc1ccc2c(c1)C=C(C(=O)Nc1ccc3c(c1)CN(C1CCC(=O)NC1=O)C3=O)CO2` (centres undefined), the Activity in data set [7] came out at 16%; in data set [1], 75%; in data set [2] it was 66%; in data set [8], 9%. Also, the solubility in [9] (DMSO, read-out: solubility) was 50 mM (≈ 22.4 mg/mL).

For the molecule `COc1ccc2cc(C(=O)Nc3ccc4c(c3)CN(C3CCC(=O)NC3=O)C4=O)ccc2n1` (centres undefined), the values for the Activity in data set [1] and in [2] were 89% and 68%, respectively. Moreover, the figures for the half-life in [3] and in data set [4] were greater than 4.25 h and 0.268 h, respectively. Besides, the figures for the microsomal CLint in data set [5] and in data set [6] were less than 5.4 µL/min/mg and 108 µL/min/mg, respectively.
